Molecular target: aspartate aminotransferase (AAT), K258A mutant (Escherichia coli, UniProt P00509, K246A, form not given)
Assay: X-ray crystallography
Type: binding
Settings: covalent external aldimine with L-aspartate; replaces PLP

Sequence of aspartate aminotransferase (AAT), K258A mutant (P00509 whole entry K246A, form open): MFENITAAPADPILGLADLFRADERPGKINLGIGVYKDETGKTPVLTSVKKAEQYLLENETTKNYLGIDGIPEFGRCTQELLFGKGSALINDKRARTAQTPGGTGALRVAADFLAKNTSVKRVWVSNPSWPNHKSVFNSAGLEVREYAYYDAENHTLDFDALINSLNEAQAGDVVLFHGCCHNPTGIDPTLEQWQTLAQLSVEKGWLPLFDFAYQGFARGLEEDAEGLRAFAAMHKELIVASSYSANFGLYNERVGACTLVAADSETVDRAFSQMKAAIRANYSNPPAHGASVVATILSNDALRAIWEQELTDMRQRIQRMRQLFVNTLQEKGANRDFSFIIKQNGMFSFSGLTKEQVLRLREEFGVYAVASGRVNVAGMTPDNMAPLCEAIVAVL

**Q.** `Cc1ccc(COP(=O)(O)O)c(C=O)c1O` [deazaPLP] was tested. Which “X-ray crystallography (1.5 Å)” value did it give?
**A.** The value was “structure of the K258A/deazaPLP/L-aspartate external aldimine intermediate determined here by X-ray crystallography”.
